In US20230278266A1, “MICRONEEDLE ARRAYS FORMED FROM POLYMER FILMS” (TransDerm, Inc., priority 2007, published 2023):

Tested on: fresh human skin explant
Experiment: Gentian violet delivery into excised human skin explant by loaded microneedle array
Assay type: in vitro ADME
Conditions: human skin explant from abdominoplasty, red fluorescence filters
Source text: FIGS. 3A and 3B show cross-sections of excised human skin showing penetration by needles loaded with gentian violet. […] The sample was sectioned at an angle nearly parallel to the needle array geometry, allowing observation of multiple needles. The delivery device backing material is visible as a layer between the OCT and the skin sample. The left needle is itself cross-sectioned, showing the gentian violet solution loaded into the needle shaft. The middle needle appears to penetrate both the stratum corneum and the epidermis, with the needle tip in full contact with the dermis. A third needle (on the right) is visible but is out of the focal plane. […] The Gentian violet was detected using a fluorescent microscope under red fluorescence filters (excitation 546 nm; emission 580 nm). The skin section was stained with DAPI to allow nuclei visualization.
A microneedle array in the transdermal delivery device loaded with gentian violet solution was applied to fresh human skin explant (resulting from abdominoplasty procedure) and immediately placed into tissue freezing medium (OCT) and frozen to -28° C. The sample was sectioned at an angle nearly parallel to the needle array geometry, and multiple needles were observed (FIG. 3). In FIG. 3, the microneedle array transdermal delivery device backing material is visible as a layer between the OCT and the skin sample. […]

skin layer reached, fluorescence microscopy of skin section: delivered to human epidermis and dermis
Compound: CN(C)c1ccc(C(=C2C=CC(=[N+](C)C)C=C2)c2ccc(N(C)C)cc2)cc1 [gentian violet]
